Test results as given in US20230279020A9, “CARM1 INHIBITORS AND USES THEREOF” (Epizyme, Inc., priority 2013, published 2023).

Target: Human CARM1 (PRMT4) (Homo sapiens (Human), UniProt Q86X55)
Assay: CARM1 enzyme assay on peptide substrate (3H-SAM Flashplate)
Conditions: Biochemical potencies, classification codes; read-out: Biochem IC50
Description: S-adenosylmethionine (SAM), S-adenosylhomocysteine (SAH), bicine, Tween20, dimethylsulfoxide (DMSO), bovine skin gelatin (BSG), sodium butyrate and Tris(2-carboxyethyl)phosphine hydrochloride solution (TCEP) were purchased from Sigma-Aldrich at the highest level of purity possible. ^3H-SAM was purchase from American Radiolabeled Chemicals with a specific activity of 80 Ci/mmol. 384-well streptavidin Flashplates were purchased from PerkinElmer.
Peptide representative of human histone H3 residues 16-30 was synthesized with an N-terminal linker-affinity tag motif and a C-terminal amide cap by 21st Century Biochemicals. […] The sequence was Biot-Ahx-[…]-amide and contained a monomethylated arginine at position 26 (SEQ ID NO.:1).
The gene sequence encoding isoform1 containing a deletion of amino acids 539-561 was amplified subsequently and subcloned into pFastBacMam (Viva Biotech).
Recombinant baculovirus were generated according to Bac-to-Bac kit instructions (Life Technologies). Protein over-expression was accomplished by infecting exponentially growing HEK 293F cell culture at 1.3×10^6cell/ml with virus (MOI=10) in the presence of 8 mM sodium butyrate. Infections were carried out at 37° C. for 48 hours, harvested by centrifugation, and stored at −80° C. for purification.
Expressed full-length human Flag- and His-tagged CARM1 protein was purified from cell paste by anti-flag M2 affinity chromatography with resin equilibrated with buffer containing 20 mM Tris, 150 mM NaCl, 5% glycerol, pH 7.8. Column was washed with 500 mM NaCl in buffer A and Flag-CARM1-His was eluted with 200 ug/ml FLAG peptide in buffer A. Pooled fractions were dialyzed in 20 mM Tris, 150 mM NaCl, 5% glycerol and 1 mM DTT, pH 7.8.
The assays were all performed in a buffer consisting of 20 mM Bicine (pH=7.6), 1 mM TCEP, 0.005% BSG, and 0.002% Tween 20, prepared on the day of use. Compounds in 100% DMSO (1 ul) were spotted into a polypropylene 384-well V-bottom plates (Greiner) using a Platemate Plus outfitted with a 384-channel head (Thermo Scientific). DMSO (1 ul) was added to Columns 11, 12, 23, 24, rows A-H for the maximum signal control and 1 ul of SAH, a known product and inhibitor of CARM1, was added to columns 11, 12, 23, 24, rows I-P for the minimum signal control. A cocktail (40 ul) containing the CARM1 enzyme was added by Multidrop Combi (Thermo-Fisher). The compounds were allowed to incubate with CARM1 for 30 min at room temperature, then a cocktail (10 ul) containing ^3H-SAM and peptide was added to initiate the reaction (final volume=51 ul). The final concentrations of the components were as follows: CARM1 was 0.25 nM, ^3H-SAM was 30 nM, peptide was 250 nM, SAH in the minimum signal control wells was 1 mM, and the DMSO concentration was 2%. The assays were stopped by the addition of non-radiolabeled SAM (10 ul) to a final concentration of 300 uM, which dilutes the ^3H-SAM to a level where its incorporation into the peptide substrate is no longer detectable. 50 ul of the reaction in the 384-well polypropylene plate was then transferred to a 384-well Flashplate and the biotinylated peptides were allowed to bind to the streptavidin surface for at least 1 hour before being washed once with 0.1% Tween20 in a Biotek ELx405 plate washer. The plates were then read in a PerkinElmer TopCount plate reader to measure the quantity of ^3H-labeled peptide bound to the Flashplate surface, measured as disintegrations per minute (dpm) or alternatively, referred to as counts per minute (cpm).
where dpm=disintegrations per minute, cmpd=signal in assay well, and min and max are the respective minimum and maximum signal controls.
where top and bottom are the normally allowed to float, but may be fixed at 100 or 0 respectively in a 3-parameter fit. The Hill Coefficient normally allowed to float but may also be fixed at 1 in a 3-parameter fit. Y is the % inhibition and X is the compound concentration.

Sequence of Human CARM1 (PRMT4) (Q86X55 other isoform, or with tags, fused parts or gaps isoform Q86X55-1): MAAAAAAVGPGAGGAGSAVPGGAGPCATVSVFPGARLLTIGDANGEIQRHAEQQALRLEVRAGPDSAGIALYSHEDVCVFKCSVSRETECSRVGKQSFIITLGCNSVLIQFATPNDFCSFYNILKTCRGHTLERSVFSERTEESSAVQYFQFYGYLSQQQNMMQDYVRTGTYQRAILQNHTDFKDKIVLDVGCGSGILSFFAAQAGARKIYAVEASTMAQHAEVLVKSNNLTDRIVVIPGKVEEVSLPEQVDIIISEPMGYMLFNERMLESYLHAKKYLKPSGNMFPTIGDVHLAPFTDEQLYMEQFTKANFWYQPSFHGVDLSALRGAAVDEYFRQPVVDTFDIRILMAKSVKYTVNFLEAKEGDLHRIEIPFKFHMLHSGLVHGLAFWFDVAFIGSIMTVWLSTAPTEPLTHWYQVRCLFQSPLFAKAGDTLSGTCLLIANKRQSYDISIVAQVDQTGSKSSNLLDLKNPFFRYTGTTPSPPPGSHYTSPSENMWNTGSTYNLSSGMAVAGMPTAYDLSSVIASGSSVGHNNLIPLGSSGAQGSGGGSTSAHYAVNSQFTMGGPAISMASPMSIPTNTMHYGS

Row | IC50 | Structure (SMILES)
1 | < 100 nM | CCN1CCN(c2cc(-c3c(C)noc3C)nc(-c3cccc(OCC(O)CNC)c3)n2)CC1 (centres unmarked) [Example 20-1a]
2 | < 100 nM | CNCC(O)COc1cccc(-c2nc(-c3c(C)noc3C)c(C)c(N(C)[C@H]3C[C@@](C)(OC)C3)n2)c1 (some centres unmarked) [Example 20-3]
3 | < 100 nM | CNCC(O)COc1cccc(-c2nc(Nc3cncnc3)cc(-c3c(C)noc3C)n2)c1 (centres unmarked) [Example 21-1a]
4 | < 100 nM | CNCC(O)COc1cc(Cl)cc(-c2nc(NC3CCN(CC(F)F)CC3)c(C)c(-c3c(C)noc3C)n2)c1 (centres unmarked) [Example 21-3]
5 | < 100 nM | CNCC(O)COc1cccc(-c2nc(NC(C)C)cc(N(C)C3CCOCC3)n2)c1 (centres unmarked) [Example 22-1]
6 | < 100 nM | CNCC(O)COc1cc(Cl)cc(-c2nc(NC3CCN(C4CC4)CC3)c(C)c(-c3c(C)noc3C)n2)c1 (centres unmarked) [Example 22-3]
7 | < 100 nM | CNCC(O)COc1cccc(-c2nc(-c3cccc(C#N)c3)cc(N(C)CCC#N)n2)c1 (centres unmarked) [Example 24-1]
8 | < 100 nM | CCOC(=O)N1CCOC[C@H]1CNc1nc(-c2cc(OC[C@@H](O)CNC)ccc2Cl)nc(-c2c(C)noc2C)c1C [Example 24-3]
9 | < 100 nM | CNCC(O)COc1cc(OC)cc(-c2nc(C3CC3)cc(N(C)C3CCOCC3)n2)c1 (centres unmarked) [Example 25-1]
10 | < 100 nM | CCOC(=O)N1CCOC[C@H]1CNc1nc(-c2cc(OC[C@H](O)CNC)ccc2Cl)nc(-c2c(C)noc2C)c1C [Example 25-3]
11 | < 100 nM | CNCC(O)COc1cccc(-c2nc(N[C@H]3CCOC3)c(C)c(N3CCOCC3)n2)c1 (some centres unmarked) [Example 26-1]
12 | < 100 nM | CNC[C@H](O)COc1ccc(F)c(-c2nc(NC3CCN(C(=O)OC)CC3)c(C)c(-c3c(C)noc3C)n2)c1 [Example 26-3]
13 | < 100 nM | CNCC(O)COc1cccc(-c2nc(NC)cc(-c3c(C)noc3C)n2)c1 (centres unmarked) [Example 27-1a]
14 | < 100 nM | CCOC(=O)N1CCCCC1CNc1nc(-c2cc(OC[C@@H](O)CNC)ccc2Cl)nc(-c2c(C)noc2C)c1C (some centres unmarked) [Example 27-3]
15 | < 100 nM | CCOC(=O)N1CCN(c2cc(-c3c(C)noc3C)nc(-c3cccc(OCC(O)CNC)c3)n2)CC1 (centres unmarked) [Example 28-1a]
16 | < 100 nM | CCOC(=O)N1CCCCC1CNc1nc(-c2cc(OC[C@H](O)CNC)ccc2Cl)nc(-c2c(C)noc2C)c1C (some centres unmarked) [Example 28-3]
17 | < 100 nM | CNCC(O)COc1cccc(-c2nc(NCCOC)cc(-c3cc4ccccc4o3)n2)c1 (centres unmarked) [Example 29-1]
18 | < 100 nM | CNCC(O)COc1cccc(-c2nc(-c3c(C)noc3C)cc(N3CCNC(C(=O)O)C3)n2)c1 (centres unmarked) [Example 29-1a]
19 | < 100 nM | CNCC(O)COc1ccc(Cl)c(-c2nc(NC3CCOCC3)c(C)c(-c3c(C)noc3C)n2)c1 (centres unmarked) [Example 29-3]
20 | < 100 nM | CNCC(O)COc1cccc(-c2nc(-c3c(C)noc3C)cc(N3CCN(C4CC4)CC3)n2)c1 (centres unmarked) [Example 30-1a]
21 | < 100 nM | CNCC(O)COc1ccc(Cl)c(-c2nc(NCC3CCOC3)c(C)c(-c3c(C)noc3C)n2)c1 (centres unmarked) [Example 30-3]
22 | < 100 nM | CNCC(O)COc1cccc(-c2nc(NC3CCOC3)cc(-c3c(C)noc3C)n2)c1 (centres unmarked) [Example 31-1a]
23 | < 100 nM | CNCC(O)COc1ccc(Cl)c(-c2nc(NCC3CCCCO3)c(C)c(-c3c(C)noc3C)n2)c1 (centres unmarked) [Example 31-3]
24 | < 100 nM | CNCC(O)COc1cccc(-c2nc(-c3cccnc3)cc(N(C)C3CCOCC3)n2)c1 (centres unmarked) [Example 32-1]
25 | < 100 nM | CNCC(O)COc1cccc(-c2nc(N[C@H]3CC[C@H](O)CC3)cc(-c3c(C)noc3C)n2)c1 (some centres unmarked) [Example 32-1a]
26 | < 100 nM | CNC[C@@H](O)COc1cccc(-c2nc(NC3CCN(C(=O)OC)C(C)C3)c(C)c(-c3c(C)noc3C)n2)c1 (some centres unmarked) [Example 32-3]
27 | < 100 nM | CNCC(O)COc1cccc(-c2nc(NC3CCOCC3)cc(-c3c(C)noc3C)n2)c1 (centres unmarked) [Example 33-1]

Row | IC50 | Structure (SMILES)
28 | < 100 nM | CNCC(O)COc1cccc(-c2nc(N[C@H]3CC[C@@H](O)CC3)cc(-c3c(C)noc3C)n2)c1 (some centres unmarked) [Example 33-1a]
29 | < 100 nM | CNC[C@H](O)COc1cccc(-c2nc(NC3CCN(C(=O)OC)C(C)C3)c(C)c(-c3c(C)noc3C)n2)c1 (some centres unmarked) [Example 33-3]
30 | < 100 nM | CNCC(O)COc1cccc(-c2nc(NCCOC)cc(-c3cnn(CC(C)C)c3)n2)c1 (centres unmarked) [Example 34-1]
31 | < 100 nM | CNCC(O)COc1cccc(-c2nc(-c3c(C)noc3C)c(C)c(N(C)C3CCOCC3)n2)c1 (centres unmarked) [Example 34-1a]
32 | < 100 nM | CNCC(O)COc1cccc(-c2nc(-c3c(C)noc3C)c(C)c(N3CCn4ccnc4C3)n2)c1 (centres unmarked) [Example 34-3]
33 | < 100 nM | CNCC(O)COc1cccc(-c2nc(-c3c(C)noc3C)cc(N3CCNC(C)C3)n2)c1 (centres unmarked) [Example 35-1a]
34 | < 100 nM | CNCC(O)COc1cccc(-c2nc(-c3c(C)noc3C)c(C)c(N3Cc4cccnc4C3)n2)c1 (centres unmarked) [Example 35-3]
35 | < 100 nM | CNCC(O)COc1cccc(-c2nc(N3CCOCC3)cc(N(C)C3CCOCC3)n2)c1 (centres unmarked) [Example 36-1]
36 | < 100 nM | CNCC(O)COc1cccc(-c2nc(-c3c(C)noc3C)cc(N3CCNC(C)(C)C3)n2)c1 (centres unmarked) [Example 36-1a]
37 | < 100 nM | CNCC(O)COc1ccc(Cl)c(-c2nc(O[C@H]3CCN(C(=O)OC)[C@@H](C)C3)c(C)c(-c3c(C)noc3C)n2)c1 (some centres unmarked) [Example 36-3]
38 | < 100 nM | CNCC(O)COc1cccc(-c2nc(N3CCOCC3)c(C)c(N(C)[C@H]3CCOC3)n2)c1 (some centres unmarked) [Example 37-1]
39 | < 100 nM | CNCC(O)COc1ccc(Cl)c(-c2nc(NC3CC4(CCN(C(=O)OC)CC4)C3)c(C)c(-c3c(C)noc3C)n2)c1 (centres unmarked) [Example 37-3]
40 | < 100 nM | CNCC(O)COc1cccc(-c2nc(-c3c(C)noc3C)cc(N3CCN(C(C)=O)[C@@H](C)C3)n2)c1 (some centres unmarked) [Example 38-1a]
41 | < 100 nM | CNCC(O)COc1ccc(Cl)c(-c2nc(NC3CC(O)(C(F)(F)F)C3)c(C)c(-c3c(C)noc3C)n2)c1 (centres unmarked) [Example 38-3]
42 | < 100 nM | CNCC(O)COc1cccc(-c2nc(-c3c(C)noc3C)cc(N3CCN(C(C)=O)C[C@H]3C)n2)c1 (some centres unmarked) [Example 39-1a]
43 | < 100 nM | CNCC(O)COc1ccc(Cl)c(-c2nc(N[C@H]3CCC[C@@H](O)C3)c(C)c(-c3c(C)noc3C)n2)c1 (some centres unmarked) [Example 39-3]
44 | < 100 nM | CNCC(O)COc1cccc(-c2nc(-c3c(C)noc3C)cc(N3CCN[C@@H](C)C3)n2)c1 (some centres unmarked) [Example 40-1a]
45 | < 100 nM | CNC[C@@H](O)COc1ccc(F)c(-c2nc(NC3CCN(C(=O)OC)CC3)c(C)c(-c3c(C)noc3C)n2)c1 [Example 40-3]
46 | < 100 nM | CNCC(O)COc1cccc(-c2nc(-c3cnn(CC(C)C)c3)cc(N(C)CCC#N)n2)c1 (centres unmarked) [Example 41-1]
47 | < 100 nM | CNCC(O)COc1cccc(-c2nc(N[C@H]3C[C@@H](O)C3)cc(-c3c(C)noc3C)n2)c1 (some centres unmarked) [Example 41-1a]
48 | < 100 nM | CNCC(O)COc1ccc(Cl)c(-c2nc(NCC3COCCO3)c(C)c(-c3c(C)noc3C)n2)c1 (centres unmarked) [Example 41-3]
49 | < 100 nM | CNCC(O)COc1cccc(-c2nc(NCCCN3CCCC3=O)cc(C3=CCCC3)n2)c1 (centres unmarked) [Example 42-1]
50 | < 100 nM | CNCC(O)COc1cccc(-c2nc(-c3c(C)noc3C)cc(N3CCC4(CC3)NC(=O)NC4=O)n2)c1 (centres unmarked) [Example 42-1a]
51 | < 100 nM | CCOC(=O)N1CCOC[C@@H]1CNc1nc(-c2cc(OC[C@@H](O)CNC)ccc2Cl)nc(-c2c(C)noc2C)c1C [Example 42-3]
52 | < 100 nM | CNCC(O)COc1cccc(-c2nc(N[C@H]3C[C@H](O)C3)cc(-c3c(C)noc3C)n2)c1 (some centres unmarked) [Example 43-1a]
53 | < 100 nM | CNC[C@H](O)COc1ccc(Cl)c(-c2nc(N[C@H]3CCN(C4CC4)C[C@H]3F)c(C)c(-c3c(C)noc3C)n2)c1 [Example 43-3]
